In patent US12594276B2, “Inhibitors of human immunodeficiency virus replication” (ViiV Healthcare UK (No.5) Limited, priority 2024, dated 2026):

Experiments:
[1] = tested on: recombinant NL4-3 virus (nef section replaced with Renilla luciferase gene) in MT-2 cells; test: HIV cell culture assay (antiviral activity, luciferase readout); assay type: cell-based; conditions: Renilla, NL43, MT-2 cells infected for 4-5 days with recombinant NL4-3 Renilla luciferase virus
How it was run: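 Reporter virus is produced in 293T cells and its titer set in MT-2 cells by luciferase activity. MT-2 cells are then infected in the presence of serially diluted compound for 4-5 days. Luciferase is quantified and EC50 fitted to the median effect equation.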

[2] = Compound cytotoxicity, XTT-based colorimetric assay; assay type: cell-based; conditions: human; uninfected MT2 cells, day 4, XTT; read-out: CC50
How it was run: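 Cells seeded as for the antiviral assay but left uninfected (MT2). Compound exposure continued to day 4. XTT reagent added and colour read. CC50 calculated.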

Row | Compound | EC50 [1] [nM] | CC50 at 4 days [2] [nM]
1 | CS(=O)(=O)Nc1nn(CCN2CCC(F)(F)C2)c2c(-n3c([C@H](Cc4cc(F)cc(F)c4)NC(=O)Cn4nc(C(F)F)c5c4C(F)(F)[C@@H]4C[C@H]54)nc4nc(C5CCC(F)(F)CC5)cc(C(F)F)c4c3=O)ccc(Cl)c12 (atropisomer, axis not shown; (P)) [Example 154, N-[(1S)-1-[(3P)-3-{4-chloro-1-[2-(3,3-difluoropyrrolidin-1-yl)ethyl]-3-methanesulfonamido-1H-indazol-7-yl}-7-(4,4-difluorocyclohexyl)-5-(difluoromethyl)-4-oxo-3H,4H-pyrido[2,3-d]pyrimidin-2-yl]-2-(3,5-difluorophenyl)ethyl]-2-[(2S,4R)-9-(difluoromethyl)-5,5-difluoro-7,8-diazatricyclo[4.3.0.0^2,^4]nona-1(6),8-dien-7-yl]acetamide] | 0.019 | > 50
2 | CS(=O)(=O)Nc1nn(CCOCC(F)(F)F)c2c(-n3c([C@H](Cc4cc(F)cc(F)c4)NC(=O)Cn4nc(C(F)F)c5c4C(F)(F)[C@@H]4C[C@H]54)nc4nc(C5CCC(F)(F)CC5)cc(C(F)F)c4c3=O)ccc(Cl)c12 (atropisomer, axis not shown; (P)) [Example 155, N-[(1S)-1-[(3P)-3-{4-chloro-3-methanesulfonamido-1-[2-(2,2,2-trifluoroethoxy)ethyl]-1H-indazol-7-yl}-7-(4,4-difluorocyclohexyl)-5-(difluoromethyl)-4-oxo-3H,4H-pyrido[2,3-d]pyrimidin-2-yl]-2-(3,5-difluorophenyl)ethyl]-2-[(2S,4R)-9-(difluoromethyl)-5,5-difluoro-7,8-diazatricyclo[4.3.0.0^2,^4]nona-1(6),8-dien-7-yl]acetamide] | 0.027 | > 50
3 | CS(=O)(=O)Nc1nn(CCN2CCC(F)(F)C2)c2c(-n3c([C@H](Cc4cc(F)cc(F)c4)NC(=O)Cn4nc(C(F)F)c5c4C(F)(F)[C@@H]4C[C@H]54)nc4nc(C5CCC(F)(F)CC5)ccc4c3=O)ccc(Cl)c12 (atropisomer, axis not shown; (P)) [Example 158, N-[(1S)-1-[(3P)-3-{4-chloro-1-[2-(3,3-difluoropyrrolidin-1-yl)ethyl]-3-methanesulfonamido-1H-indazol-7-yl}-7-(4,4-difluorocyclohexyl)-4-oxo-3H,4H-pyrido[2,3-d]pyrimidin-2-yl]-2-(3,5-difluorophenyl)ethyl]-2-[(2S,4R)-9-(difluoromethyl)-5,5-difluoro-7,8-diazatricyclo[4.3.0.0^2,^4]nona-1(6),8-dien-7-yl]acetamide] | 0.011 | > 50
4 | Cc1cc(C2CCC(F)(F)CC2)nc2nc([C@H](Cc3cc(F)cc(F)c3)NC(=O)Cn3nc(C(F)F)c4c3C(F)(F)[C@@H]3C[C@H]43)n(-c3ccc(Cl)c4c(NS(C)(=O)=O)nn(CCN5C[C@@H](C)O[C@@H](C)C5)c34)c(=O)c12 (atropisomer, axis not shown; (P)) [Example 159, N-[(1S)-1-[(3P)-3-(4-chloro-1-{2-[(2R,6S)-2,6-dimethylmorpholin-4-yl]ethyl}-3-methanesulfonamido-1H-indazol-7-yl)-7-(4,4-difluorocyclohexyl)-5-methyl-4-oxo-3H,4H-pyrido[2,3-d]pyrimidin-2-yl]-2-(3,5-difluorophenyl)ethyl]-2-[(2S,4R)-9-(difluoromethyl)-5,5-difluoro-7,8-diazatricyclo[4.3.0.0^2,4]nona-1(6),8-dien-7-yl]acetamide] | 0.017 | > 50
5 | CS(=O)(=O)Nc1nn(CCN2CC(C(F)F)C2)c2c(-n3c([C@H](Cc4cc(F)cc(F)c4)NC(=O)Cn4nc(C(F)F)c5c4C(F)(F)[C@@H]4C[C@H]54)nc4nc(C5CCC(F)(F)CC5)ccc4c3=O)ccc(Cl)c12 (atropisomer, axis not shown; (P)) [Example 160, N-[(1S)-1-[(3P)-3-(4-chloro-1-{2-[3-(difluoromethyl)azetidin-1-yl]ethyl}-3-methanesulfonamido-1H-indazol-7-yl)-7-(4,4-difluorocyclohexyl)-4-oxo-3H,4H-pyrido[2,3-d]pyrimidin-2-yl]-2-(3,5-difluorophenyl)ethyl]-2-[(2S,4R)-9-(difluoromethyl)-5,5-difluoro-7,8-diazatricyclo[4.3.0.0^2,^4]nona-1(6),8-dien-7-yl]acetamide] | 0.023 | > 50
6 | CS(=O)(=O)Nc1nn(CCN2CCCCC2)c2c(-n3c([C@H](Cc4cc(F)cc(F)c4)NC(=O)Cn4nc(C(F)F)c5c4C(F)(F)[C@@H]4C[C@H]54)nc4nc(C5CCC(F)(F)CC5)ccc4c3=O)ccc(Cl)c12 (atropisomer, axis not shown; (P)) [Example 165, N-[(1S)-1-[(3P)-3-{4-chloro-3-methanesulfonamido-1-[2-(piperidin-1-yl)ethyl]-1H-indazol-7-yl}-7-(4,4-difluorocyclohexyl)-4-oxo-3H,4H-pyrido[2,3-d]pyrimidin-2-yl]-2-(3,5-difluorophenyl)ethyl]-2-[(2S,4R)-9-(difluoromethyl)-5,5-difluoro-7,8-diazatricyclo[4.3.0.0^2,^4]nona-1(6),8-dien-7-yl]acetamide] | 0.031 | > 50
7 | CS(=O)(=O)Nc1nn(CCN2CCC(F)CC2)c2c(-n3c([C@H](Cc4cc(F)cc(F)c4)NC(=O)Cn4nc(C(F)F)c5c4C(F)(F)[C@@H]4C[C@H]54)nc4nc(C5CCC(F)(F)CC5)ccc4c3=O)ccc(Cl)c12 (atropisomer, axis not shown; (P)) [Example 166, N-[(1S)-1-[(3P)-3-{4-chloro-1-[2-(4-fluoropiperidin-1-yl)ethyl]-3-methanesulfonamido-1H-indazol-7-yl}-7-(4,4-difluorocyclohexyl)-4-oxo-3H,4H-pyrido[2,3-d]pyrimidin-2-yl]-2-(3,5-difluorophenyl)ethyl]-2-[(2S,4R)-9-(difluoromethyl)-5,5-difluoro-7,8-diazatricyclo[4.3.0.0^2,^4]nona-1(6),8-dien-7-yl]acetamide] | 0.019 | > 50
8 | CC1(F)CCN(CCn2nc(NS(C)(=O)=O)c3c(Cl)ccc(-n4c([C@H](Cc5cc(F)cc(F)c5)NC(=O)Cn5nc(C(F)F)c6c5C(F)(F)[C@@H]5C[C@H]65)nc5nc(C6CCC(F)(F)CC6)ccc5c4=O)c32)CC1 (atropisomer, axis not shown; (P)) [Example 167, N-[(1S)-1-[(3P)-3-{4-chloro-1-[2-(4-fluoro-4-methylpiperidin-1-yl)ethyl]-3-methanesulfonamido-1H-indazol-7-yl}-7-(4,4-difluorocyclohexyl)-4-oxo-3H,4H-pyrido[2,3-d]pyrimidin-2-yl]-2-(3,5-difluorophenyl)ethyl]-2-[(2S,4R)-9-(difluoromethyl)-5,5-difluoro-7,8-diazatricyclo[4.3.0.0^2,^4]nona-1(6),8-dien-7-yl]acetamide] | 0.024 | > 50
9 | CS(=O)(=O)Nc1nn(CCN2CCCC(F)(F)C2)c2c(-n3c([C@H](Cc4cc(F)cc(F)c4)NC(=O)Cn4nc(C(F)F)c5c4C(F)(F)[C@@H]4C[C@H]54)nc4nc(C5CCC(F)(F)CC5)ccc4c3=O)ccc(Cl)c12 (atropisomer, axis not shown; (P)) [Example 168, N-[(1S)-1-[(3P)-3-{4-chloro-1-[2-(3,3-difluoropiperidin-1-yl)ethyl]-3-methanesulfonamido-1H-indazol-7-yl}-7-(4,4-difluorocyclohexyl)-4-oxo-3H,4H-pyrido[2,3-d]pyrimidin-2-yl]-2-(3,5-difluorophenyl)ethyl]-2-[(2S,4R)-9-(difluoromethyl)-5,5-difluoro-7,8-diazatricyclo[4.3.0.0^2,^4]nona-1(6),8-dien-7-yl]acetamide] | 0.018 | > 50
10 | CS(=O)(=O)Nc1nn(CCN2CCC3(CC2)COC3)c2c(-n3c([C@H](Cc4cc(F)cc(F)c4)NC(=O)Cn4nc(C(F)F)c5c4C(F)(F)[C@@H]4C[C@H]54)nc4nc(C5CCC(F)(F)CC5)ccc4c3=O)ccc(Cl)c12 (atropisomer, axis not shown; (P)) [Example 170, N-[(1S)-1-[(3P)-3-[4-chloro-3-methanesulfonamido-1-(2-{2-oxa-7-azaspiro[3.5]nonan-7-yl}ethyl)-1H-indazol-7-yl]-7-(4,4-difluorocyclohexyl)-4-oxo-3H,4H-pyrido[2,3-d]pyrimidin-2-yl]-2-(3,5-difluorophenyl)ethyl]-2-[(2S,4R)-9-(difluoromethyl)-5,5-difluoro-7,8-diazatricyclo[4.3.0.0^2,^4]nona-1(6),8-dien-7-yl]acetamide] | 0.032 | > 50
11 | CS(=O)(=O)Nc1nn(CCN2CCOC3(CC3)C2)c2c(-n3c([C@H](Cc4cc(F)cc(F)c4)NC(=O)Cn4nc(C(F)F)c5c4C(F)(F)[C@@H]4C[C@H]54)nc4nc(C5CCC(F)(F)CC5)ccc4c3=O)ccc(Cl)c12 (atropisomer, axis not shown; (P)) [Example 176, N-[(1S)-1-[(3P)-3-[4-chloro-3-methanesulfonamido-1-(2-{4-oxa-7-azaspiro[2.5]octan-7-yl}ethyl)-1H-indazol-7-yl]-7-(4,4-difluorocyclohexyl)-4-oxo-3H,4H-pyrido[2,3-d]pyrimidin-2-yl]-2-(3,5-difluorophenyl)ethyl]-2-[(2S,4R)-9-(difluoromethyl)-5,5-difluoro-7,8-diazatricyclo[4.3.0.0^2,^4]nona-1(6),8-dien-7-yl]acetamide] | 0.018 | > 50
